# Data reported in patent US11098056B2, “UDP glycosyltransferase inhibitors and methods of use” (GENZYME CORPORATION, priority 2018, dated 2021).
# pIC50: −log10 of the molar value.
# Biological target: T1, UGT8 (Homo sapiens, UniProt Q16880)
# T1 construct: host or cells: OE19 cells
# T1 sequence (Q16880 21-541): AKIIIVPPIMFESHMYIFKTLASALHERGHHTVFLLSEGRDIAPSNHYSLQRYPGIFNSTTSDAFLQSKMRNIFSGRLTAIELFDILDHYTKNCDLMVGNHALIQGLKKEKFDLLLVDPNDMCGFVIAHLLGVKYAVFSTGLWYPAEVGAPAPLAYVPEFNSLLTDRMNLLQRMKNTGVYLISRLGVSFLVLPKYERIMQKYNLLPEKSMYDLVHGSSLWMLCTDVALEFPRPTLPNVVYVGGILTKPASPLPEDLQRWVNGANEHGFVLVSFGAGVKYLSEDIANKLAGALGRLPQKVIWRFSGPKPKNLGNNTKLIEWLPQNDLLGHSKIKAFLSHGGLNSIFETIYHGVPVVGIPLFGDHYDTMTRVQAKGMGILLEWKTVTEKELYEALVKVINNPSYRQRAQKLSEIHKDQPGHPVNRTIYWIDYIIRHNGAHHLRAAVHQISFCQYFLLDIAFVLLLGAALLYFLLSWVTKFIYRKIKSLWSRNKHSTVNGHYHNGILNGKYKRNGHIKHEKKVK
# Test: In vitro sulfatide (SFT) synthesis inhibition in OE19 cells, LC-MS/MS readout
# Type: cell-based
# Settings: 72 hr, sulfatide by LC-MS/MS, read-out: Potency range (IC50, In-vitro SFT)
# Method: For medium throughput screening, library compounds were dispensed into CellBIND 384 well plates to a final concentration of 10 μM. OE19 cells (Sigma) were grown in to 70-90% confluency in RPMI 1640+L-glutamine and […]; were trypsinized to achieve suspension and were aliquoted at 2,500 cells/well, total well volume 50 μl. Plates were incubated 72 hr at 37° C. in 5% CO2; supernatant was removed and plates were dried, heat-sealed and stored at −20° C. until analysis.
# For IC50 determinations, the same procedure was followed except that test compounds were added to the plate as dose-downs in triplicate to yield concentration response curves.
# Mass Spectrometer Analysis of Sulfatide (SFT):
# Assay plates were thawed and 85 μl mobile phase B (5 mM ammonium formate^+0.2% formic acid in 50:50 methanol:acetonitrile). Fifteen μl 20 ng/ml C17 SFT in mobile phase B was added as an internal standard.
# SFT was analyzed using an Applied Biosystems API-4000 triple quad mass spectrometer interfaced to a Thermo Scientific Multiplex system (LX-4) equipped with four pumps. Chromatography of OE19 cell samples or 2B5-mouse cells treated with compounds was performed using a Waters Acquity UPLC BEH C8 2.1×50 mm column with 1.7 um particle size. The chromatography was performed using the following mobile phases. Mobile phase A (MPA): 0.2% formic acid and 5 mM ammonium formate in deionized water; MPB: see above. The LC method was run in isocratic mode for 4 sequentially running columns using 95% MPB and 5% MPA with flow rate of 1 ml/min and a column temperature of 60° C.
# The Triple quad mass spectrometer was run in Negative Ionization mode monitoring the following MRM transitions and using the following parameters:
# Electrospray voltage was […], and source temperature was 550° C.
row,pIC50,Compound
1,> 7.00,"CNC(=O)c1csc2c(C(F)(F)F)cc(N3CCC(OC(=O)N4CCC4)CC3)nc12 [Example 60, 1-(3-(Methylcarbamoyl)-7-(trifluoromethyl)thieno[3,2-b]pyridin-5-yl)piperidin-4-yl azetidine-1-carboxylate]"
2,> 7.00,"CC[C@H](C)NC(=O)OC1CCN(c2cc(C(F)(F)F)c3scc(C(=O)NC)c3n2)CC1 [Example 63, 1-(3-(Methylcarbamoyl)-7-(trifluoromethyl)thieno[3,2-b]pyridin-5-yl)piperidin-4-yl (S)-sec-butylcarbamate]"
3,> 7.00,"CNC(=O)c1csc2c(C(F)(F)F)cc(N3CCC(OC(=O)N4CC(OC(F)F)C4)CC3)nc12 [Example 87, 1-(3-(Methylcarbamoyl)-7-(trifluoromethyl)thieno[3,2-b]pyridin-5-yl)piperidin-4-yl 3-(difluoromethoxy)azetidine-1-carboxylate]"
4,> 7.00,"CNC(=O)c1csc2c(C(F)(F)F)cc(N3CCC(OC(=O)N4CC(OC(F)(F)F)C4)CC3)nc12 [Example 88, 1-(3-(Methylcarbamoyl)-7-(trifluoromethyl)thieno[3,2-b]pyridin-5-yl)piperidin-4-yl 3-(trifluoromethoxy)azetidine-1-carboxylate]"
5,> 7.00,"CNC(=O)c1csc2c(C(F)(F)F)cc(N3CCC(OC(=O)NC(C)C)C(F)(F)C3)nc12 (stereo not drawn) [Example 91, 3,3-Difluoro-1-(3-(methylcarbamoyl)-7-(trifluoromethyl)thieno[3,2-b]pyridin-5-yl)piperidin-4-yl isopropylcarbamate]"
6,> 7.00,"CNC(=O)c1csc2c(C(F)(F)F)cc(N3CCC(OC(=O)N4CCn5nccc5C4)CC3)nc12 [Example 95, 1-(3-(Methylcarbamoyl)-7-(trifluoromethyl)thieno[3,2-b]pyridin-5-yl)piperidin-4-yl 6,7-dihydropyrazolo[1,5-a]pyrazine-5(4H)-carboxylate]"
7,< 6.00,"CNC(=O)c1csc2c(C(F)(F)F)cc(N3CCC(OC(=O)NCC4CN(C)CCO4)CC3)nc12 (stereo not drawn) [Example 115, 1-(3-(Methylcarbamoyl)-7-(trifluoromethyl)thieno[3,2-b]pyridin-5-yl)piperidin-4-yl ((4-methylmorpholin-2-yl)methyl)carbamate]"
8,> 7.00,"CNC(=O)c1csc2ccc(N3CCC(OC(=O)N[C@@H](C)COC(F)(F)F)CC3)nc12 [Example 142, 1-(3-(Methylcarbamoyl)thieno[3,2-b]pyridin-5-yl)piperidin-4-yl (S)-(1-(trifluoromethoxy)propan-2-yl)carbamate]"
9,> 7.00,"CNC(=O)c1csc2c(C(F)(F)F)cc(N3CCC(Oc4cccc(C)n4)CC3)nc12 [Example 145, N-Methyl-5-(4-((6-methylpyridin-2-yl)oxy)piperidin-1-yl)-7-(trifluoromethyl)thieno[3,2-b]pyridine-3-carboxamide]"
10,> 7.00,"CNC(=O)c1csc2c(C(F)(F)F)c(C)c(N3CCC(OC(=O)N[C@@H](C)C4CC4)CC3)nc12 [Example 151, 1-(6-Methyl-3-(methylcarbamoyl)-7-(trifluoromethyl)thieno[3,2-b]pyridin-5-yl)piperidin-4-yl (S)-(1-cyclopropylethyl)carbamate]"
11,> 7.00,"CNC(=O)c1csc2c(C(F)(F)F)cc(OC3CCN(C(=O)OCCOC(F)(F)F)CC3)nc12 [Example 171, 2-(Trifluoromethoxy)ethyl 4-((3-(methylcarbamoyl)-7-(trifluoromethyl)thieno[3,2-b]pyridin-5-yl)oxy)piperidine-1-carboxylate]"
12,> 7.00,"CNC(=O)c1csc2c(C(F)(F)F)cc(O[C@@H]3CCN(C(=O)O[C@@H](C)COC(F)(F)F)[C@H](C)C3)nc12 [Example 175, (S)-1-(Trifluoromethoxy)propan-2-yl (2R,4R)-2-methyl-4-((3-(methylcarbamoyl)-7-(trifluoromethyl)thieno[3,2-b]pyridin-5-yl)oxy)piperidine-1-carboxylate]"
13,> 7.00,"CNC(=O)c1csc2c(C(F)(F)F)c(C)c(O[C@@H]3CCN(C(=O)O[C@@H](C)COC(F)(F)F)[C@H](C)C3)nc12 [Example 176, (S)-1-(Trifluoromethoxy)propan-2-yl (2R,4R)-2-methyl-4-((6-methyl-3-(methylcarbamoyl)-7-(trifluoromethyl)thieno[3,2-b]pyridin-5-yl)oxy)piperidine-1-carboxylate]"
14,> 7.00,"CNC(=O)c1csc2c(C(F)(F)F)c(C)c(O[C@@H]3CCN(C(=O)OCCOC(F)(F)F)C[C@@H]3F)nc12 [Example 180, 2-(Trifluoromethoxy)ethyl (3S,4R)-3-fluoro-4-((6-methyl-3-(methylcarbamoyl)-7-(trifluoromethyl)thieno[3,2-b]pyridin-5-yl)oxy)piperidine-1-carboxylate]"
15,> 7.00,"CNC(=O)c1csc2c(C(F)(F)F)c(C)c(O[C@@H]3CCN(C(=O)O[C@@H](C)COC(F)(F)F)C[C@@H]3F)nc12 [Example 181, (S)-1-(Trifluoromethoxy)propan-2-yl (3S,4R)-3-fluoro-4-((6-methyl-3-(methylcarbamoyl)-7-(trifluoromethyl)thieno[3,2-b]pyridin-5-yl)oxy)piperidine-1-carboxylate]"
16,> 7.00,"CNC(=O)c1csc2c(C(F)(F)F)c(C)c(O[C@H]3CCN(C(=O)O[C@@H](C)COC(F)(F)F)C[C@H]3F)nc12 [Example 183, (S)-1-(Trifluoromethoxy)propan-2-yl (3R,4S)-3-fluoro-4-((6-methyl-3-(methylcarbamoyl)-7-(trifluoromethyl)thieno[3,2-b]pyridin-5-yl)oxy)piperidine-1-carboxylate]"
17,> 7.00,"CNC(=O)c1csc2c(C(F)(F)F)nc(N3CCC(OC(=O)N[C@@H](C)COC)CC3)nc12 [Example 186, 1-(7-(Methylcarbamoyl)-4-(trifluoromethyl)thieno[3,2-d]pyrimidin-2-yl)piperidin-4-yl (S)-(1-methoxypropan-2-yl)carbamate]"
18,> 7.00,"CNC(=O)c1csc2c(C(F)(F)F)nc(N3CCC(OC(=O)N[C@@H](C)C4CC4)CC3)nc12 [Example 187, 1-(7-(Methylcarbamoyl)-4-(trifluoromethyl)thieno[3,2-d]pyrimidin-2-yl)piperidin-4-yl-(S)-(1-cyclopropylethyl)carbamate]"
19,6.00 to 7.00,"CNC(=O)c1csc2c(C(F)(F)F)cc(N3CC(Oc4cncc(F)c4)C3)nc12 [Example 190, 5-(3-((5-Fluoropyridin-3-yl)oxy)azetidin-1-yl)-N-methyl-7-(trifluoromethyl)thieno[3,2-b]pyridine-3-carboxamide]"
20,> 7.00,"CNC(=O)c1csc2c(C(F)(F)F)c(C)c(O[C@H]3C[C@@H](NC(=O)OCC4CC4)C3)nc12 [Example 218, Cyclopropylmethyl ((1S,3S)-3-((6-methyl-3-(methylcarbamoyl)-7-(trifluoromethyl)thieno[3,2-b]pyridin-5-yl)oxy)cyclobutyl)carbamate]"
21,> 7.00,"CNC(=O)c1csc2c(C(F)(F)F)c(C)c(O[C@H]3C[C@@H](NC(=O)O[C@@H](C)C4CC4)C3)nc12 [Example 220, (S)-1-Cyclopropylethyl ((1S,3R)-3-((6-methyl-3-(methylcarbamoyl)-7 (trifluoromethyl)thieno[3,2-b]pyridin-5-yl)oxy)cyclobutyl)carbamate]"
22,> 7.00,"CNC(=O)c1csc2c(C(F)(F)F)cc(OC3(C)CN(C(=O)OCCOC(F)(F)F)C3)nc12 [Example 254, 2-(Trifluoromethoxy)ethyl 3-methyl-3-((3-(methylcarbamoyl)-7-(trifluoromethyl)thieno[3,2-b]pyridin-5-yl)oxy)azetidine-1-carboxylate]"

row,Compound,pIC50
1,"CNC(=O)c1csc2c(C(F)(F)F)cc(OC3CC4(C3)CN(C(=O)O[C@H](C)C3CC3)C4)nc12 [Example 204, (R)-1-Cyclopropylethyl 6-((3-(methylcarbamoyl)-7-(trifluoromethyl)thieno[3,2-b]pyridin-5-yl)oxy)-2-azaspiro[3.3]heptane-2-carboxylate]",> 7.00
2,"CNC(=O)c1csc2c(C(F)(F)F)cc(OC3CC4(CCN4C(=O)OCCOC(F)(F)F)C3)nc12 (stereo not drawn) [Example 212, 2-(Trifluoromethoxy)ethyl 6-((3-(methylcarbamoyl)-7-(trifluoromethyl)thieno[3,2-b]pyridin-5-yl)oxy)-1-azaspiro[3.3]heptane-1-carboxylate]",6.00 to 7.00
